Key:
[1] = system: cultured cortical neurons; test: OGD-induced Ca2+ overload and neuronal death, Fura-2 ratio Ca2+ imaging; assay type: cell-based, mouse; details: for OGD-mediated neuronal death: WT neurons, 10 μM overnight
Method: FIGS. 6C-6E show the effects of TAT-EE3 on Ca2+ overload and neuronal death caused by OGD. Cultured WT and gM2KO cortical neurons were treated with 10 μM TAT-SC and TAT-EE3 for overnight before experiments.
(§1) Mice pups at P0 were euthanized based on animal protocol. Whole brain was dissected out immediately and immersed in ice-cold Hank's Balanced Salt Solution (HBSS). Meninges were removed thoroughly, and tissue of different brain areas was taken based on purposes. Brain tissue was cut into small pieces and digested with 0.25% trypsin (Thermal Fisher Scientific, 15090-046) in HBSS at 37° C. for 20 min. Digestion solution was quickly removed, and tissue pellets are washed with Neurobasal® Medium (Thermal Fisher Scientific, 21103-049) for 3 times. Cells were resuspended with appropriate amount of Neurobasal® Medium supplemented with 2% B27® supplement (Thermal Fisher Scientific, 17504-044), 3% horse serum (Thermal Fisher Scientific, 16050114), 0.25% L-glutamine (Thermal Fisher Scientific, 25030-081) and 1% penicillin/streptomycin (Thermal Fisher Scientific, 15140-122). Isolated cells were counted and plated on coverslips pre-coated with poly-L-lysine (Sigma-Aldrich, P4707) at a density about 500×10^3 cells/cm2 for OGD and H2O2 treatment, and 100×10^3 cells/cm2 for current recording. Cytosine arabinoside (Sigma-Aldrich, C1768) was added to maintain a concentration at 1 μM to inhibit the proliferation of non-neuronal cells. 24 h after plating, culture medium was changed to Neurobasal® Medium supplemented with 2% B27® supplement, 0.25% L-glutamine and 1% penicillin/streptomycin. The concentration of Cytosine arabinoside (araC) was increased to 2 μM. Medium was changed every 3 days. OGD and H2O2 treatment was conducted at 7th day of culture, and current recording was conducted at 7th, 10th and 14th day of culture.
Oxygen-glucose deprivation (OGD) was achieved by replace the glucose in aCSF with sucrose, and 95% N2 and 5% CO2 was used to equilibrate sucrose-aCSF to displace oxygen. This condition typically yielded a pO2 of <5 mm Hg in the imaging chamber (Thompson, R. J., Zhou, N., and Mac Vicar, B. A. (2006). Ischemia opens neuronal gap junction hemichannels. Science 312, 924-27). At least 10 min was allowed for neurons to adapt to the change from culture medium to aCSF before OGD was applied.
Changes of intracellular Ca2+ was measured using ratio Ca2+ imaging as we describe previously (Du, J., Xie, J., Zhang, Z., Tsujikawa, H., Fusco, D., Silverman, D., Liang, B., and Yue, L. (2010). TRPM7-mediated Ca2+ signals confer fibrogenesis in human atrial fibrillation. Circulation research 106, 992-1003). In brief, Fura-2 AM (Thermal Fisher Scientific, F1221) was dissolved in DMSO to make a stock concentration at 1 mM. Pre-warmed Neurobasal® Medium (Thermal Fisher Scientific, 21103-049) was used to dilute Fura-2 AM to a working concentration at 2.5 μM, and 0.02% Pluronic™ F-127 (Thermal Fisher Scientific, P3000MP) was added to facilitate loading of Fura-2 AM. Cells plated on 25 mm glass coverslips were washed using pre-warmed PBS for 3 times, and then incubated with 2 ml of Fura-2 AM working solution for 30˜45 min at 37° C. […]
Ca2+ influx was measured by perfusing the cells with Tyrode's solution for transfected HEK293T cells or aCSF for neurons under different conditions. […] Fluorescence intensities at 510 nm with 340 nm and 380 nm excitation were collected at a rate of 1 Hz using CoolSNAP HQ2 (Photometrics) and data were analyzed using NIS-Elements (Nikon). […]

NMDARs = test: NMDAR currents in cultured cortical neurons of WT and TRPM2-KO mice (whole cell recording); assay type: cell-based, mouse
Method: FIGS. 4O and 4P show the effects of stausporine on NMDAR currents recorded from cortical neurons cultured for 14 days. FIG. 4O show representative NMDAR currents elicited at −80 mV by 10 μM NMDA in WT and TRPM2-KO (gM2KO) neurons treated with or without Stausporine at 1 μM for overnight. FIG. 4P show the average current amplitude (ns, p>0.05; **, p<0.01; ANOVA, Bonferroni's test; mean±SEM, n=11, 10, 10, 12 neurons from 2 mice respectively).
FIG. 4S show representative NMDAR currents elicited by NMDA in WT and TRPM2-KO neurons treated with or without endosidin2 at 1 μM for overnight.
FIGS. 5I-5K show the effects of TAT-EE3 on PKC induced changes of NMDAR currents recorded in cortical neurons of WT and TRPM2-KO. Neurons were incubated with 10 μM TAT-SC or TAT-EE3 for overnight before current recording. FIG. 5I show representative NMDAR currents elicited by 10 μM NMDA at −80 mV before and after PMA (1 μM) perfusion for 20 s. TAT-SC or TAT-EE3 10 μM was included in the pipette solution for current recording.
FIGS. 6A and 6B show the effects of TAT-EE3 on NMDAR currents in WT and gM2KO cortical neurons cultured for 14 days. […] TAT-SC or TAT-EE3 10 μM was included in the pipette solution during current recording.
as §1
Whole cell currents were recorded using an Axopatch 200B amplifier. Data were digitized at 10 or 20 kHz and digitally filtered offline at 1 kHz. Patch electrodes were pulled from borosilicate glass and fire-polished to a resistance of ˜3 MΩ when filled with internal solutions. Series resistance (Rs) was compensated up to 90% to reduce series resistance errors to <5 mV. Cells in which Rs was >10 MΩ were discarded (Du, J., Xie, J., and Yue, L. (2009). Modulation of TRPM2 by acidic pH and the underlying mechanisms for pH sensitivity. J Gen Physiol 134, 471-88).
For heterologous expression, transfected HEK-293 cells were identified by GFP fluorescence. TRPM2 current recording in transfected HEK-293T cells was performed as we previously reported (Du, J., Xie, J., and Yue, L. (2009). Intracellular calcium activates TRPM2 and its alternative spliced isoforms. Proceedings of the National Academy of Sciences 107, 7239-44; Du, J., Xie, J., and Yue, L. (2009). Modulation of TRPM2 by acidic pH and the underlying mechanisms for pH sensitivity. J Gen Physiol 134, 471-88). […]

[2] = pretreatment 10 μM overnight, F340/380
[3] = WT neurons incubated with 10 μM peptide overnight, PMA 1 μM 20 s

“TAT-EE3: membrane permeable disrupting peptide, sequence YGRKKRRQRRREEDTDSSEEMLALAEE (SEQ ID NO: 4)” was tested, and the OGD-mediated neuronal death ([1]; 30 min OGD, WT without TAT-EE3 10.6%) was 3.6%, the OGD-mediated neuronal death ([1]; 60 min OGD, WT without TAT-EE3 47.6%) was 9.9% and the OGD-mediated neuronal death ([1]; 90 min OGD, WT without TAT-EE3 70.5%) was 45.2%. For the same substance, the “OGD-induced changes of intracellular Ca2+ in TRPM2-KO neurons” value [1, 2] was “not in TRPM2-KO neurons”, the “OGD-induced changes of intracellular Ca2+ in WT neurons” value [1, 2] was “significantly reduced” and the “NMDAR currents in neurons from TRPM2-KO mice” value (NMDARs; 10 μM peptide overnight and in pipette, neurons cultured 14 days) was “not from TRPM2-KO mice”. The “NMDAR currents in neurons from WT mice” value (NMDARs; 10 μM peptide overnight and in pipette, neurons cultured 14 days, 10 μM NMDA, -80 mV) was “efficiently reduced”, the “NMDAR current amplitude before and after PMA perfusion” value (NMDARs; [3]) was “much smaller” and the “increase of NMDAR current amplitude induced by PMA” value (NMDARs; [3]) was “significantly smaller than that in neurons incubated with TAT-SC”. For the same substance, the “PMA-induced changes of NMDAR currents, TAT-SC vs TAT-EE3” value (NMDARs; neurons from TRPM2-KO mice, 10 μM peptide overnight) was “no difference”.
